{"source": "patent US12616740B2", "about": "“Methods of using a GIP/GLP1 co-agonist for therapy” (ELI LILLY AND COMPANY, priority 2018, dated 2026)", "format_in_all_cases": "in vivo, human", "key": {"[1]": {"tested_on": "patients with T2DM who have inadequate glycemic control", "experiment": "Phase 2 clinical study NCT03131687 (26 weeks): patients reaching HbA1c target", "experimental": "(§1) Clinical Study (NCT03131687) Supporting Maintenance Dose Embodiments A 6-month (26-week) Phase 2 double-blind clinical study is designed to evaluate the safety, efficacy, and PK/PD of 4 dose levels (1 mg, 5 mg, 10 mg and 15 mg respectively) of tirzepatide once weekly by subcutaneous injection compared with dulaglutide 1.5 mg. once weekly (QW) and placebo QW in patients with T2DM who have inadequate glycemic control with diet and exercise with or without a stable dose of metformin. Tirzepatide dose is up-titrated to the maintenance dose using the following weekly dose increments:\n(§2) The study also has a 4-week follow up period. In addition to safety and efficacy for treating T2DM, efficacy endpoints include the effect of tirzepatide on HbA1c, FBG, body weight, lipids, and waist circumference compared with placebo and with dulaglutide 1.5 mg. The study also evaluates the effect of tirzepatide on GI tolerability, hypoglycemia, hypersensitivity reactions, and pancreatic safety, as well as the development of treatment-emergent anti-drug antibodies. Model-based dose response analyses are performed to predict potential for significant HbA1c lowering and weight loss in longer studies. Statistical Analyses: Efficacy: The primary efficacy outcome of HbA1c change from baseline to the 26-week endpoint is analyzed using a Bayesian dose-response model. Analyses are performed on the intention to treat population (mITT) analysis set. Supportive analysis of the primary efficacy outcome for the mITT dataset are the model for post-baseline measures (MMRM) with body mass index (BMI) (<30 kg/m^2, ≥30 kg/m^2), metformin use, treatment, visit, and treatment-by-visit interaction as fixed effects, baseline HbA1c as a covariate, and patient as a random effect. The mean weight change from baseline at 12 and 26 weeks, along with the mean change from baseline of HbA1c at 12 weeks, is analyzed using similar dose-response models as the primary analyses. The percentages of patients with ≥5% or ≥10% body weight loss, reaching the HbA1c target of ≤6.5% or ≤7.0% at 26 weeks, or requiring rescue therapy are analyzed using logistic regression with fixed effects of treatment and strata, and baseline as a covariate. The changes from baseline in FBG (fasting blood glucose), SMBG (self-monitored blood glucose) levels, waist circumference, and mean percentage change in lipids from baseline to 12 and 26 weeks are analyzed using a similar MMRM to the one used for the primary analyses. Table Abbreviations: Dula 1.5 mg=dulaglutide 1.5 mg once weekly; LY means tirzepatide, and LY 1 mg=tirzepatide 1 mg once weekly; LY 5 mg=5 mg once weekly; LY 10 mg=escalation dose group tirzepatide once weekly with highest dose of 10 mg; LY 15 mg=escalation dose group of tirzepatide once weekly with highest dose 15 mg; LOCF=last observation-carried-forward; N=number of patients; pbo=placebo; Week 26=mITT on-treatment data at Week 26 excluding data after study drug discontinuation or rescue drug initiation; mITT=modified intent-to-treat; SD=standard deviation. For Table 4, n=number of patients in the population with baseline and post-baseline value at the specified time point. For Table 6, LY10 mg=escalation dose group tirzepatide, once weekly with highest dose of 10 mg; escalation dose: (5 mg weeks 0 and 1), LY15 mg=escalation dose group tirzepatide, once weekly with highest dose of 15 mg; escalation dose: (5 mg weeks 0 and 1; 10 mg weeks 2 to 5); N=number of patients in specified group, m=number of patients who experienced new event during interval, FolUp=follow up, T/Wk=Time range, (week) and %=means percent patients spending at least some time in treatment group who experienced new event during interval. For Table 7, n is the number of patients with events meeting the criteria; N is number of patients in the population; % is percent of patients in treatment group experiencing the event."}, "[2]": {"experiment": "NCT03131687: weight loss at Week 26", "experimental": "as §1, §2"}, "[3]": {"experiment": "NCT03131687: decrease appetite (reported event)", "experimental": "as §1, §2"}, "[4]": {"conditions": "LY 5 mg = tirzepatide 5 mg once weekly, LOCF Week 26 (N = 55)"}, "[5]": {"conditions": "LY 5 mg = tirzepatide 5 mg once weekly, mITT Week 26 (N = 48)"}, "[6]": {"conditions": "LY 10 mg = tirzepatide once weekly, escalation to highest dose 10 mg, LOCF Week 26 (N = 51)"}, "[7]": {"conditions": "LY 10 mg = tirzepatide once weekly, escalation to highest dose 10 mg, mITT Week 26 (N = 44)"}, "[8]": {"conditions": "LY 15 mg = tirzepatide once weekly, escalation to highest dose 15 mg, LOCF Week 26 (N = 53)"}, "[9]": {"conditions": "LY 15 mg = tirzepatide once weekly, escalation to highest dose 15 mg, mITT Week 26 (N = 35)"}, "[10]": {"conditions": "LY 1 mg = tirzepatide 1 mg once weekly, LOCF"}, "[11]": {"conditions": "LY 1 mg = tirzepatide 1 mg once weekly, second line, analysis set not given (not LOCF)"}, "[12]": {"conditions": "LY 5 mg = tirzepatide 5 mg once weekly, LOCF"}, "[13]": {"conditions": "LY 5 mg = tirzepatide 5 mg once weekly, second line, analysis set not given (not LOCF)"}, "[14]": {"conditions": "LY 10 mg = tirzepatide once weekly, highest dose 10 mg, LOCF"}, "[15]": {"conditions": "LY 10 mg = tirzepatide once weekly, highest dose 10 mg, second line, analysis set not given (not LOCF)"}, "[16]": {"conditions": "LY 15 mg = tirzepatide once weekly, highest dose 15 mg, LOCF"}, "[17]": {"conditions": "LY 15 mg = tirzepatide once weekly, highest dose 15 mg, second line, analysis set not given (not LOCF)"}, "[18]": {"conditions": "LY1 mg = tirzepatide 1 mg once weekly, N = 52"}, "[19]": {"conditions": "LY5 mg = tirzepatide 5 mg once weekly, N = 55"}, "[20]": {"conditions": "LY10 mg = tirzepatide once weekly, highest dose 10 mg, N = 51"}, "[21]": {"conditions": "LY15 mg = tirzepatide once weekly, highest dose 15 mg, N = 53"}}}
{"substance": "tirzepatide [LY]", "values": [{"measurement": "HbA1c change from baseline (in words)", "setting": "[1]; 5 mg, 10 mg, and 15 mg doses of tirzepatide, significantly different from placebo and from dulaglutide 1.5 mg", "result": "significantly decrease HbA1c from baseline"}, {"measurement": "% of Patients Reaching HbA1c Target <5.7%", "setting": "[1]; [4]", "result": 3.6, "unit": "%"}, {"measurement": "% of Patients Reaching HbA1c Target <6%", "setting": "[1]; [4]", "result": 25.5, "unit": "%"}, {"measurement": "odds ratio vs. placebo, Patients Reaching HbA1c Target <5.7%", "setting": "[1]; [4]", "result": 1.6}, {"measurement": "odds ratio vs. placebo, Patients Reaching HbA1c Target <6%", "setting": "[1]; [4]", "result": 11.8}, {"measurement": "% of Patients Reaching HbA1c Target <5.7%", "setting": "[1]; [5]", "result": 4.3, "unit": "%"}, {"measurement": "% of Patients Reaching HbA1c Target <6%", "setting": "[1]; [5]", "result": 23.4, "unit": "%"}, {"measurement": "odds ratio vs. placebo, Patients Reaching HbA1c Target <5.7%", "setting": "[1]; [5]", "result": 1.7}, {"measurement": "odds ratio vs. placebo, Patients Reaching HbA1c Target <6%", "setting": "[1]; [5]", "result": 10.5}, {"measurement": "% of Patients Reaching HbA1c Target <5.7%", "setting": "[1]; [6]", "result": 18.0, "unit": "%"}, {"measurement": "% of Patients Reaching HbA1c Target <6%", "setting": "[1]; [6]", "result": 46.0, "unit": "%"}, {"measurement": "odds ratio vs. placebo, Patients Reaching HbA1c Target <5.7%", "setting": "[1]; [6]", "result": 7.8}, {"measurement": "odds ratio vs. placebo, Patients Reaching HbA1c Target <6%", "setting": "[1]; [6]", "result": 28.7}, {"measurement": "% of Patients Reaching HbA1c Target <5.7%", "setting": "[1]; [7]", "result": 20.9, "unit": "%"}, {"measurement": "% of Patients Reaching HbA1c Target <6%", "setting": "[1]; [7]", "result": 51.2, "unit": "%"}, {"measurement": "odds ratio vs. placebo, Patients Reaching HbA1c Target <5.7%", "setting": "[1]; [7]", "result": 7.9}, {"measurement": "odds ratio vs. placebo, Patients Reaching HbA1c Target <6%", "setting": "[1]; [7]", "result": 34.5}, {"measurement": "% of Patients Reaching HbA1c Target <5.7%", "setting": "[1]; [8]", "result": 30.2, "unit": "%"}, {"measurement": "% of Patients Reaching HbA1c Target <6%", "setting": "[1]; [8]", "result": 37.7, "unit": "%"}, {"measurement": "odds ratio vs. placebo, Patients Reaching HbA1c Target <5.7%", "setting": "[1]; [8]", "result": 14.4}, {"measurement": "odds ratio vs. placebo, Patients Reaching HbA1c Target <6%", "setting": "[1]; [8]", "result": 22.0}, {"measurement": "% of Patients Reaching HbA1c Target <5.7%", "setting": "[1]; [9]", "result": 42.9, "unit": "%"}, {"measurement": "% of Patients Reaching HbA1c Target <6%", "setting": "[1]; [9]", "result": 54.3, "unit": "%"}, {"measurement": "odds ratio vs. placebo, Patients Reaching HbA1c Target <5.7%", "setting": "[1]; [9]", "result": 26.6}, {"measurement": "odds ratio vs. placebo, Patients Reaching HbA1c Target <6%", "setting": "[1]; [9]", "result": 48.7}, {"measurement": "body weight change from baseline (in words)", "setting": "[2]; 5 mg, 10 mg, and 15 mg doses of tirzepatide, significantly different from placebo and dulaglutide 1.5 mg", "result": "significantly decrease body weight from baseline"}, {"measurement": "% of Patients Achieving Weight loss ≥10%", "setting": "[2]; [10]", "result": 5.8, "unit": "%"}, {"measurement": "odds ratio vs. placebo, Weight loss ≥10%", "setting": "[2]; [10]", "result": 7.1}, {"measurement": "% of Patients Achieving Weight loss ≥10%", "setting": "[2]; [11]", "result": 6.8, "unit": "%"}, {"measurement": "% of Patients Achieving Weight loss ≥15%", "setting": "[2]; [11]", "result": 0, "unit": "%"}, {"measurement": "odds ratio vs. placebo, Weight loss ≥10%", "setting": "[2]; [11]", "result": 6.7}, {"measurement": "% of Patients Achieving Weight loss ≥10%", "setting": "[2]; [12]", "result": 16.4, "unit": "%"}, {"measurement": "odds ratio vs. placebo, Weight loss ≥10%", "setting": "[2]; [12]", "result": 20.8}, {"measurement": "% of Patients Achieving Weight loss ≥10%", "setting": "[2]; [13]", "result": 16.7, "unit": "%"}, {"measurement": "% of Patients Achieving Weight loss ≥15%", "setting": "[2]; [13]", "result": 6.3, "unit": "%"}, {"measurement": "odds ratio vs. placebo, Weight loss ≥10%", "setting": "[2]; [13]", "result": 17.2}, {"measurement": "% of Patients Achieving Weight loss ≥10%", "setting": "[2]; [14]", "result": 39.2, "unit": "%"}, {"measurement": "odds ratio vs. placebo, Weight loss ≥10%", "setting": "[2]; [14]", "result": 67.6}, {"measurement": "% of Patients Achieving Weight loss ≥10%", "setting": "[2]; [15]", "result": 45.5, "unit": "%"}, {"measurement": "% of Patients Achieving Weight loss ≥15%", "setting": "[2]; [15]", "result": 25.0, "unit": "%"}, {"measurement": "odds ratio vs. placebo, Weight loss ≥10%", "setting": "[2]; [15]", "result": 71.7}, {"measurement": "% of Patients Achieving Weight loss ≥10%", "setting": "[2]; [16]", "result": 37.7, "unit": "%"}, {"measurement": "odds ratio vs. placebo, Weight loss ≥10%", "setting": "[2]; [16]", "result": 66.2}, {"measurement": "% of Patients Achieving Weight loss ≥10%", "setting": "[2]; [17]", "result": 54.3, "unit": "%"}, {"measurement": "% of Patients Achieving Weight loss ≥15%", "setting": "[2]; [17]", "result": 34.3, "unit": "%"}, {"measurement": "odds ratio vs. placebo, Weight loss ≥10%", "setting": "[2]; [17]", "result": 109.2}, {"measurement": "Decrease Appetite (reported): n, number of patients with events", "setting": "[3]; [18]", "result": "n = 2;"}, {"measurement": "Decrease Appetite (reported): percent of patients in treatment group experiencing the event", "setting": "[3]; [18]", "result": 3.8, "unit": "%"}, {"measurement": "Decrease Appetite (reported): n, number of patients with events", "setting": "[3]; [19]", "result": "n = 10;"}, {"measurement": "Decrease Appetite (reported): percent of patients in treatment group experiencing the event", "setting": "[3]; [19]", "result": 18.2, "unit": "%"}, {"measurement": "Decrease Appetite (reported): n, number of patients with events", "setting": "[3]; [20]", "result": "n = 13;"}, {"measurement": "Decrease Appetite (reported): percent of patients in treatment group experiencing the event", "setting": "[3]; [20]", "result": 25.5, "unit": "%"}, {"measurement": "Decrease Appetite (reported): n, number of patients with events", "setting": "[3]; [21]", "result": "n = 10;"}, {"measurement": "Decrease Appetite (reported): percent of patients in treatment group experiencing the event", "setting": "[3]; [21]", "result": 18.9, "unit": "%"}]}
